Where a name gives a salt, the structure may show the parent alone.
Tests used:
clonidine: α2-receptor = experiment: in vitro clonidine binding: α2-receptor assay; set-up: species or system Male Wistar rats; settings: rat cortical tissue homogenate; 3 nM 3H-clonidine; 20 minutes at 25° C; log-probit analysis; read-out: Inhibition of clonidine binding activity IC50
Protocol: The following reagents are prepared: 1.
[4-^3H]-Clonidine Hydrochloride (20-30 Ci/mmol) is obtained from New England Nuclear. […] Clonidine hydrochloride is obtained from Boehringer Ingelheim. A stock solution of 0.1 mM clonidine is made up to determine nonspecific binding. This yields a final concentration of 1 µM in the assay (20 µl to 2 ml). […] Test compounds. For most assays, a 1 mM stock solution is made up in a suitable solvent and serially diluted, such that the final concentration in the assay ranges from 10-^5 to 10-^8M.
Male Wistar rats are sacrificed by decapitation and the cortica tissue rapidly dissected. The tissue is homogenized in 50 volumes of 0.05 M Tris buffer, pH 7.7 (buffer 1b) with the Brinkman Polytron, then centrifuged at 40,000 g for 15 minutes. The supernatant is discarded and the pellet rehomogenized in the original volume of 0.05 M Tris buffer, pH 7.7 and recentrifuged as before. The supernate is discarded and the final pellet rehomogenized in 50 volumes of Buffer 2b. This tissue suspension is then stored on ice. The final tissue concentration is 10 mg/ml. […]
Tissue homogenates are incubated for 20 minutes at 25° C with 3 nM ^3H-clonidine and varying drug concentrations, then immediately filtered under reduced pressure on Whatman GF/B filters. […] Ten ml of liquescent counting solution is added to each sample which is then counted by liquid scintillation spectroscopy. […]

acetylcholinesterase = target: T1, acetylcholinesterase (Rattus norvegicus, UniProt P37136); experiment: biochemical; set-up: species or system Male Wistar rats
T1 construct: corpora striata dissected free, weighted and homogenized in 19 volumes; from tissue; host or cells: rat brain corpora striata, crude homogenate
T1 sequence (P37136 32-614): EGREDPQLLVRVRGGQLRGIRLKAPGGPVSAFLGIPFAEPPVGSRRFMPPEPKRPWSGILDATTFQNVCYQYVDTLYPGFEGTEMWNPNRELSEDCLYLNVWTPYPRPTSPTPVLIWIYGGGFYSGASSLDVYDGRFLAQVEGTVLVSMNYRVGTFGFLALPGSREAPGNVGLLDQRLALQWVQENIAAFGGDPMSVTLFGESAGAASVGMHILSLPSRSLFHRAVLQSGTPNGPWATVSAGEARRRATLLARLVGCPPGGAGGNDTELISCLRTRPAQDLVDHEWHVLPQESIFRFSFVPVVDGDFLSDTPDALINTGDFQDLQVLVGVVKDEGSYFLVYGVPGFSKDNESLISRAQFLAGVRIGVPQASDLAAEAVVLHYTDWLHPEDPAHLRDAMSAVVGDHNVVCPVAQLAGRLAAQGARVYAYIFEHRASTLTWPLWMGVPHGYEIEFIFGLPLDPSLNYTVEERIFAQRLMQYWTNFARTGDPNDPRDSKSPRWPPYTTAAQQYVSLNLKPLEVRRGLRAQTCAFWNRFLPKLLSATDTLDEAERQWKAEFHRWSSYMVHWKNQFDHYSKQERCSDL
Protocol: 0.05M Phosphate Buffer (pH 7.2)
A solution of monobasic sodium phosphate monohydrate (6.85 g) in distilled water (100 ml) is added to a solution of dibasic sodium phosphate heptahydrate (13.4 g) and distilled water (100 ml) until a pH of 7.2 was attained. The solution was diluted 1 to 10 with distilled water.
5,5-Dithiobisnitrobenzoic acid in Buffer
The 0.05M Phosphate Buffer (pH 7.2) was added to 5.5-dithiobisnitrobenzoic acid to a total volume of 100 ml, i.e., a quantity sufficient (gs) to 100 ml.
A 2 millimolar stock solution of the test drug is prepared in a quantity sufficient of either acetic acid or dimethyl sulfoxide to volume with 5,5-dithiobisnitrobenzoic acid in Buffer. […]
Male Wistar rats are decapitated, brains rapidly removed, corpora striata dissected free, weighted and homogenized in 19 volumes (approximately 7 mg protein/ml) of 0.05M Phosphate Buffer (pH 7.2) using a Potter-Elvejhem homogenizer. […] Enzyme activity is measured with a Beckman DU-50 spectrophotometer with the following software and instrument settings: • 1. […]
Blank values are determined for each run to control for non-enzymatic hydrolysis of substrate and these values are automatically subtracted by the Kindata program available on kinetics soft-pac module. This program also calculates the rate of absorbance change for each cuvette. […]
IC50 values are calculated from log-probit analysis

Structure (SMILES) | IC50 (clonidine: α2-receptor) | IC50 (acetylcholinesterase)
C#CCOc1cc(CN2CCN(c3ccccn3)CC2)ccc1OC [4-Methoxy-3-(propargyloxy)-1-[[4-(pyridin-2-yl)piperazin-1-yl]methyl] benzene hydrochloride monohydrate] | 34.6 nM | 26900 nM
C#CCOc1cc(CN2CCCC2)ccc1OC(=O)NC [reference compound] |  | 3.6 nM

— patent EP1032559B1 (priority 1997, dated 1999)
